The text below walks through data of ChEMBL document CHEMBL1201862, “PubChem BioAssay data set” (2004).

In general, EC50 refers to the concentration giving half of the maximal effect. The term IC50 denotes the concentration needed to halve the response being measured. Usually AC50 stands for the midpoint of the concentration-response curve, whichever way the signal moves. What is called CC50 is the concentration at which the toxic effect on the cells reaches its halfway point.

The target of series [1] is T1, Trace amine-associated receptor 1 (Homo sapiens, UniProt Q96RJ0).
T1 sequence (Q96RJ0 whole entry): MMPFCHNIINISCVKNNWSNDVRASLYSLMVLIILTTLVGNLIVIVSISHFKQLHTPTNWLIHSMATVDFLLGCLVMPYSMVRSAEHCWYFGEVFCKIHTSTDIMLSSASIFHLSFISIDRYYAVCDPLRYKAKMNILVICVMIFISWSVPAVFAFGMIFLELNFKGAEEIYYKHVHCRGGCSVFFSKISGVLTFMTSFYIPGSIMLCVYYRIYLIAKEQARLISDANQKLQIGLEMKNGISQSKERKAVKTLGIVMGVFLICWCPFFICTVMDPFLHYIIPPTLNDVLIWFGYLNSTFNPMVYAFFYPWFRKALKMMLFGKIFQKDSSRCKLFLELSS
Put plainly: Fluorescence-based cell-based high throughput dose response assay to identify agonists of the human trace amine associated receptor 1 (TAAR1). Format: functional.

Series [2] is described as follows: cells. Format: functional, cell-based.
Series [3] has as its target T1, Trace amine-associated receptor 1. Briefly: Counterscreen for agonists of the human trace amine associated receptor 1 (hTAAR1): Fluorescence-based cell-based high throughput dose response assay to identify hTAAR1 agonist that also desensitize TAAR1 receptor response. Format: functional. A general note: A counterscreen serves to expose hits that act by an unwanted route or on another target.

Series [4] in a line: cells. Format: functional, cell-based. This is another data set of the same source.
Series [5] is described as follows: bead-based luminescence quenchers, dual-tagged ARNT – biochemical, AlphaScreen, cherry-pick, artefact control for ARNT-TACC3 interaction inhibitor project, dose response (AID 651705).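 Also: AlphaScreen bead proximity signal that flags compounds interfering with the detection technology; potency reflects signal decrease which marks the compound as an assay artifact.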 Format: functional. Background: Alpha assays give light when donor and acceptor beads are brought close together.
Series [6] addresses T2, DNA repair and recombination protein RAD54-like (Homo sapiens, UniProt Q92698).
T2 sequence (Q92698 whole entry): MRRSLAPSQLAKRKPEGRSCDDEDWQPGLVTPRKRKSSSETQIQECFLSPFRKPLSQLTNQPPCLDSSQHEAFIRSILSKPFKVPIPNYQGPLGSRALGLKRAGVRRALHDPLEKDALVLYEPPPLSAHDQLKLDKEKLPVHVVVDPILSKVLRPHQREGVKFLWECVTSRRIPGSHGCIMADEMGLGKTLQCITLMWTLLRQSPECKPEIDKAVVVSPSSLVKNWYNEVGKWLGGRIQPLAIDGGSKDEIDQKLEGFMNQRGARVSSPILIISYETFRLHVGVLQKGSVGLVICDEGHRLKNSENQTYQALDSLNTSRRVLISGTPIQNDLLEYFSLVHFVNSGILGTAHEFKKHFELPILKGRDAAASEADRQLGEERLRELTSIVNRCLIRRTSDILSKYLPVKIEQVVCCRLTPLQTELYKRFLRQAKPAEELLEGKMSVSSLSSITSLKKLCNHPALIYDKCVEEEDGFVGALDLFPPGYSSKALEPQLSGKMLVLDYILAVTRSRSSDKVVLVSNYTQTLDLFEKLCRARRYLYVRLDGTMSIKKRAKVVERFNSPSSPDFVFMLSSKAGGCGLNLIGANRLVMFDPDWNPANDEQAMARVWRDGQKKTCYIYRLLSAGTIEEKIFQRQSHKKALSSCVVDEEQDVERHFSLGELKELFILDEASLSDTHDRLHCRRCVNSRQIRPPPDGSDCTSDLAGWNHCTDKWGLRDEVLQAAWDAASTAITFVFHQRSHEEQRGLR
Put plainly: RAD54 Holliday junction migration blockers – biochemical, fluorescence, cherry-picked samples, dose series, confirmation (AID 651657). Format: functional.

A further series addresses T3, Cytochrome P450 1A2 (Homo sapiens, UniProt P05177).
T3 sequence (P05177 whole entry): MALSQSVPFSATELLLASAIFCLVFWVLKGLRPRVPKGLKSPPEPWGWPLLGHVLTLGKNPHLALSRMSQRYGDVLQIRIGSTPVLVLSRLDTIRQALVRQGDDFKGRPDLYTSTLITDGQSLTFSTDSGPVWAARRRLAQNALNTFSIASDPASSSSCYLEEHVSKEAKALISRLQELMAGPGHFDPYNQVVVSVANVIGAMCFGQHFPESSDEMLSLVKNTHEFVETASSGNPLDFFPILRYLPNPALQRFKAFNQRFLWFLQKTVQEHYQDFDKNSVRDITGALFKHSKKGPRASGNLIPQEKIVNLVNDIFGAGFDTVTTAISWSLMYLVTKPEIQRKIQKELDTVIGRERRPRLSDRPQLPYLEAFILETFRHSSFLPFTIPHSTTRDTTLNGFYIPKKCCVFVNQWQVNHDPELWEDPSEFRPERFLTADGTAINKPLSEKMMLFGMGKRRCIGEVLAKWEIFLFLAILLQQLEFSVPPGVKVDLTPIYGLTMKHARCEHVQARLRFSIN

In a further series the target is Cytochrome P450 2C9 (Homo sapiens, UniProt P11712).
Sequence of Cytochrome P450 2C9 (P11712 whole entry): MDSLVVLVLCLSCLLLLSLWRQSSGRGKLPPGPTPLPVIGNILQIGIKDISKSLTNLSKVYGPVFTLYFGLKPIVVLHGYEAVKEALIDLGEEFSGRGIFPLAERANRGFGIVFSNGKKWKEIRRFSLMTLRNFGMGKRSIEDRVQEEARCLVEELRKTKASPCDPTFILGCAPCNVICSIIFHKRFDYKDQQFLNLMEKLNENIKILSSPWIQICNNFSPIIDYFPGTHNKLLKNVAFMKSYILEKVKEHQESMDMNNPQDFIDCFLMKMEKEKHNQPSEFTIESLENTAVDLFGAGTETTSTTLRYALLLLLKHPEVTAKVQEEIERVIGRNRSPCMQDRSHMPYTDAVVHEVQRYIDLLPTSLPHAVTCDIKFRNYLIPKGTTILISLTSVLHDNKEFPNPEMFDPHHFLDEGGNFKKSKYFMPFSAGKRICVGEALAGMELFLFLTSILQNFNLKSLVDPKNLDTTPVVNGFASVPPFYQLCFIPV
The target of series [7] is T4, DNA repair protein RAD52 homolog (Homo sapiens, UniProt P43351).
T4 sequence (P43351 whole entry): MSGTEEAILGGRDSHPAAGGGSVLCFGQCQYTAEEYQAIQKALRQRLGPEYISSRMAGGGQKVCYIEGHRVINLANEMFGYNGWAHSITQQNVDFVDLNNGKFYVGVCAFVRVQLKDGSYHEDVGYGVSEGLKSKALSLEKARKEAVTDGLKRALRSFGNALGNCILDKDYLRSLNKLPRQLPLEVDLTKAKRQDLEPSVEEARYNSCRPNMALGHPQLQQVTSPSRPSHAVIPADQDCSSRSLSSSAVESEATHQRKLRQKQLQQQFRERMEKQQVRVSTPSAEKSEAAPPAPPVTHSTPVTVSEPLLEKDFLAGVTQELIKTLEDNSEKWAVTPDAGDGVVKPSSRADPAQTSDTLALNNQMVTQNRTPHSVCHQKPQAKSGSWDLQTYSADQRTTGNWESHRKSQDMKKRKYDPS
Format: functional, biochemical.

A short description of series [8]: Trypanosoma cruzi growth suppression in host cells – NIH3T3 host cells, beta-gal luminescence, confirmation (AID 2044).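 Also: intracellular parasites grown in NIH/3T3 mouse fibroblasts as host cells; luminescent beta-galactosidase reporter signal from transgenic T. cruzi replicating inside host cells; inhibitors lower the luminescence signal.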 Format: functional, cell-based.
Series [9] has as its system Streptococcus sp. 'group A'. Put plainly: Streptococcus pyogenes SK(-)GAS viability under kanamycin – luminescence, BacTiterGlo, confirmation, counter-screen for streptokinase expression inhibitor project, dose response (AID 1900). Format: functional, organism-based.
For another series, the system named is Streptococcus. Put plainly: GAS UMAA2166 growth inhibition – luminescence, BacTiterGlo, counter-screen for streptokinase expression inhibitor project, dose response (AID 1915).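 Also: potency for reduction of bacterial viability or growth.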 Format: functional, organism-based.
The target of the next series is T5, Streptokinase A (Streptococcus pyogenes serotype M1, UniProt P10520).
T5 sequence (P10520 whole entry): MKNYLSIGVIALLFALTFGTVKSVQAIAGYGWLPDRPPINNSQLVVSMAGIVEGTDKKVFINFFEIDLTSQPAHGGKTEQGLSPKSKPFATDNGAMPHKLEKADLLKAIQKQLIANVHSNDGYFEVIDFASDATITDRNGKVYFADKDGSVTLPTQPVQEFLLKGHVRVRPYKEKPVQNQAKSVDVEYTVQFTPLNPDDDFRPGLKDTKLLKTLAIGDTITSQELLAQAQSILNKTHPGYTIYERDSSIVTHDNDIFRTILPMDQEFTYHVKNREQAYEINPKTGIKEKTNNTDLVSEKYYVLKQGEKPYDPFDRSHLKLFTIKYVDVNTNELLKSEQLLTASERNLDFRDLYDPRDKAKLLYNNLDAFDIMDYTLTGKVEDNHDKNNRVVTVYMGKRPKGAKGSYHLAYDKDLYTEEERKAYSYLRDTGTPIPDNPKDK
Put plainly: viability-normalized secreted streptokinase activity reduction – plasminogen activation absorbance, OD405, dose response (AID 1914).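 Also: secreted streptokinase activity via plasminogen activation per viability signal from cell pellet.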 Format: functional, Streptococcus pyogenes M1 GAS.

Series [10] can be described thus: NIH3T3 cell viability loss – ATP luminescence, mouse fibroblasts, counter-screen, dose response (AID 2010).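 Also: cells exposed to compound for about 90 hours before reading.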 Format: functional, cell-based.
Series [11] can be described thus: HIV-1 AD8 envelope cell-cell fusion blockers – cherry-pick, dose response (AID 652062).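 Also: luciferase signal from cell-cell fusion driven by HIV-1 clade B AD8 Env; potency is for inhibitors of fusion seen as a drop in luminescence.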 Format: functional, cell-based.
Series [12] can be described thus: blockers of HIV-1 ZM109 envelope-driven cell-cell fusion – HeLa effector, CEM target cells, luciferase, cherry-pick, dose response (AID 652058).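 Also: luciferase signal from HIV-1 Env mediated cell-cell fusion of effector and target cells.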 Format: functional, cell-based.
A short description of series [13]: blockers of HIV-1 envelope-mediated cell-cell fusion – cherry-pick, dose response (AID 652057). Format: functional, cell-based.
Series [14] is described as follows: viability loss in CEM21 cells – cell-based, CellTiter-Glo luminescence, cherry-picked, cytotoxicity control for viral fusion inhibitor project, dose response (AID 652042).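 Also: potency for signal decrease meaning cytotoxicity.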 Format: functional. In general terms: In ATP-based viability assays light output follows the ATP content of the culture.
A short description of series [15]: viability loss in HeLa cells – cytotoxicity control for MgcRacGAP inhibitor project, dose response (AID 624300). Format: functional.
For series [16], the target named is T6, Rac GTPase-activating protein 1 (Homo sapiens, UniProt Q9H0H5).
T6 sequence (Q9H0H5 whole entry): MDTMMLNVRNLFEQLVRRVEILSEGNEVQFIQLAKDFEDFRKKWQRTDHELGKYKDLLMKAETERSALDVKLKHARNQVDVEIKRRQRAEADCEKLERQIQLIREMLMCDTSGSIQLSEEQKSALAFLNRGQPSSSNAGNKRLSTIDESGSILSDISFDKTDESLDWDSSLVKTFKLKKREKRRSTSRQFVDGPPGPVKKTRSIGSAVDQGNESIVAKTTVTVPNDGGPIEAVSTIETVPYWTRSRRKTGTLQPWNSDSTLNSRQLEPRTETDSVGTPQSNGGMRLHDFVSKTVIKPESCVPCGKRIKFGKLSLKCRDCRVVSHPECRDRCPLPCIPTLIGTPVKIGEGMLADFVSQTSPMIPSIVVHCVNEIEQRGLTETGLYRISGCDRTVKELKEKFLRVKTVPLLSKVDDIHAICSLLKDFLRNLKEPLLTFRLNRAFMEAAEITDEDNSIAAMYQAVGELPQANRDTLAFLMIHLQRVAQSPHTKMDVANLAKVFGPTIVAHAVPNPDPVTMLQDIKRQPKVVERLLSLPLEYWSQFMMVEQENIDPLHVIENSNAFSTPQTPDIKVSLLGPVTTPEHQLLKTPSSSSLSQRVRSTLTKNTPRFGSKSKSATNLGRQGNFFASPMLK
Briefly: blockers of MgcRacGAP-driven Rac1 GTP hydrolysis – biochemical, ADP Hunter fluorescence, primary and confirmatory, confirmation (AID 624330). Format: functional.

For series [17], the target named is T7, Ubiquitin-conjugating enzyme E2 N (Homo sapiens, UniProt P61088).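 Also: Dose-response confirmation in a TR-FRET assay detecting UBC13-driven polyubiquitin chain formation, inhibition measured.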
T7 sequence (P61088 whole entry): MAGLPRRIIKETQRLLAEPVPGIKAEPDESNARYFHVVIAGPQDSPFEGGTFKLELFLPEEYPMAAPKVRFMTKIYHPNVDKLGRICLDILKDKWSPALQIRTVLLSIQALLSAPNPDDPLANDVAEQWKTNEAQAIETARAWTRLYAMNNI
Format: functional.

Calls of active or inactive are those of the source. Where only a bound is given, the exact number is not on record here.

Turning to `Cc1cc(S(=O)(=O)Nc2cccc(Cl)c2)c(C)s1`, the EC50 in [1] was 4.88 µM (active); in “cells [2]”, > 29.9 µM (inactive). Also, the concentration for half-maximal inhibition (IC50) was 8.66 µM (active) in series [3] and > 29.9 µM (inactive) in the series “cells [4]”.
In the case of `CCOc1cc2nc(-c3ccc(OC)c(OC)c3)nc(NCCCN3CCOCC3)c2cc1OC`, the AC50 in series [5] was 130 µM (active); in series [6], 5.2 µM (active).
In the case of `O=C(CSc1cccc2cccnc12)OCC(=O)c1ccccc1`, the AC50 was 20 µM (inconclusive) on Cytochrome P450 1A2, 92.5 µM (active) in series [5] and “inconclusive” at Cytochrome P450 2C9.
Turning to `CN(C)CCNc1cc(-c2ccncc2)nc2ccccc12`, the AC50 in [7] is 4.09 µM (active); in [6], 17.2 µM (active).
Consider `CCOc1ccc(NC(=O)c2c(NC(=O)CNCCN3CCOCC3)sc3c2CCC3)cc1`, for which the EC50 in [8] is 1.74 µM (active); in series [9] it was 1.95 µM (active); in the series on Streptococcus it was 59.5 µM (active); on Streptokinase A, > 150 µM (not active); in series [10], > 30 µM (not active). Further, the AC50 in [5] was 75.1 µM (active).
Take `CCc1ccccc1NC(=O)N1CCc2ccccc2C1`: the figures for the EC50 (in series [1]; in “cells [2]”) were 0.321 µM (active) and > 29.9 µM (inactive), respectively. In addition, the IC50 (in series [3]; in “cells [4]”) was > 29.9 µM (inactive) throughout.
Turning to `CCCCCCCCN1C(=O)[C@H](CC(=O)NCc2cccs2)C[C@@]2(C(=O)OCC)CCCC=C12`, the concentration at half-maximal activity (AC50) in [11] was 22.7 µM (active); in series [12], 17 µM (active); in series [13] it was 16.8 µM (active); in series [14], 25.1 µM (active).
Take `COc1ccc(NC(=O)Nc2ccc3c(c2)CC(=O)N([C@@H](C)CO)C[C@@H](C)[C@H](CN(C)Cc2ccc(C(F)(F)F)cc2)O3)cc1`: the AC50 in series [11] was 27 µM (active); in [12] it was 2.67 µM (active); in series [13], 6.8 µM (active); in [14], 23.2 µM (active).
For the molecule `CN1CCN(CCCN2c3ccccc3Sc3ccc(Cl)cc32)CC1` [PROCHLORPERAZINE EDISYLATE], the half-maximal cytotoxic concentration (CC50) in [15] is 65 µM (active). The 50% inhibitory concentration (IC50) is 80 µM (active) in series [16] and > 20 µM (inactive) in [17]. For the same molecule, the AC50 in [7] is 17.6 µM (active).
